In patent publication US4424342A, “Anthracycline antibiotic compounds” (priority 1981, dated 1984):
In brackets after ≈: the same amount, converted by molar mass. Entries after “also recorded” stand apart in the source; their conditions may differ. Where two headings read alike, the source gives them in different places.

Tests used:
L1210 leukemia cells = assay: Growth inhibition of L1210 leukemia culture cells in vitro; assay type: cell-based, mouse; details: for IC50: Mus musculus
Experimental: (§1) The 50% inhibitory concentration of trisarubicinol on L1210 leukemia cells was calculated by culturing 5×10^4 cells/ml at 37° C. in 5% CO2 -air in 20% calf serum-supplemented RPMI 1640 medium (Roswell Park Memorial Institute 1640 medium) containing none (control), 0.01 and 0.05 μg/ml of trisarubicinol. In addition. the inhibitory effect of the new anthracycline compound on nucleic acid synthesis was examined as follows: after 5×10^5 cells/ml of L1210 leukemia cells were preincubated in 5% CO2 -air at 37° C. for 1-2 hours in RPMI medium containing 10% calf serum, varied concentrations of trisarubicinol were added and incubated for 15 minutes under the same conditions. Then 0.05 μCi/ml each of ^14 C-uridine or ^14 C-thymidine was added to the cell suspensions and the mixtures were incubated at 37° C. for a further 60 minutes. At the end of incubation, cold 10% trichloroacetic acid was added to stop the incorporation of the radio-labelled compound. The acid-insoluble fractions were collected by centrifugation; rinsed three times with 5% trichloroacetic acid; and dissolved in formic acid for radiometry. The 50% inhibitory concentration of the new anthracycline compound was calculated from the radiometric data of the acid-insoluble fractions of the control and test reaction mixtures.

[1] = test system: L1210 leukemia cells, DNA synthesis; assay: DNA synthesis inhibition in L1210 leukemia culture cells (14C-thymidine incorporation); assay type: cell-based; details: Mus musculus
Experimental: as §1

[2] = test system: L1210 leukemia cells, RNA synthesis; assay: RNA synthesis inhibition in L1210 leukemia culture cells (14C-uridine incorporation); assay type: cell-based, mouse; details: for IC50: Mus musculus
Experimental: as §1

L1210 mouse leukemia = assay: In vivo activity on L1210 mouse leukemia, prolongation of survival time; parameters: species or system mouse (CDF1 mice); details: for prolongation of survival time (T/C): i.p. every day for 10 days, CDF1 mice
Experimental: The therapeutic effect of trisarubicinol was examined by calculating the prolongation of the survival time of treated animals relative to untreated ones (receiving physiological saline). In practice, 1×10^5 mouse leukemia cells each were intraperitoneally transplanted into CDF1 mice and varied doses of trisarubicinol were intraperitoneally injected every day for 10 days from 24 hours after cell transplantation.

Acute toxicity = assay type: in vivo
[3] = test system: various experimental tumors in animals; assay: Antitumor activity on various experimental tumors in animals; details: in vivo

## CC(=O)[C@]1(O)Cc2c(O)c3c(c(O)c2[C@@H](O[C@H]2C[C@H](N)[C@H](O)[C@H](C)O2)C1)C(=O)c1c(O)cccc1C3=O [carminomycin I, reference compound]
L1210 leukemia cells; L1210 culture cells, 5×10^4 cells/ml, 37° C., 20% calf serum-supplemented RPMI 1640, read-out: 50% inhibitory concentration (IC50), cell growth inhibition
  IC50: 0.01 µg/mL (≈ 0.0195 µM)
[1]; L1210 culture cells, 15 min with compound, then 60 min with 14C-thymidine, read-out: 50% inhibitory concentration (IC50), DNA synthesis inhibition
  IC50: 0.2 µg/mL (≈ 0.389 µM)
[2]; L1210 culture cells, 15 min with compound, then 60 min with 14C-uridine, read-out: 50% inhibitory concentration (IC50), RNA synthesis inhibition
  IC50: 0.29 µg/mL (≈ 0.565 µM)

## CC(O)C1(O)Cc2c(O)c3c(c(O)c2C(O[C@H]2C[C@H](N(C)C)[C@H](O[C@H]4C[C@H](O)[C@H](O[C@H]5CCC(=O)[C@H](C)O5)[C@H](C)O4)[C@H](C)O2)C1)C(=O)c1c(O)cccc1C3=O (stereo partly shown) [trisarubicinol]
L1210 leukemia cells; L1210 cultured cells / at low doses
  growth inhibition of L1210 cells (in words): markedly inhibits the growth and nucleic acid synthesis in cultured cells of mouse leukemia (L1210); also recorded: significantly inhibits the growth of L1210 mouse leukemia cells at low doses
L1210 leukemia cells; L1210, read-out: 50% inhibitory concentration (IC50), cell growth inhibition
  IC50: 0.01 µg/mL (≈ 0.0127 µM)
L1210 leukemia cells; versus carminomycin I, L1210
  antitumor activity compared with carminomycin I (in words): same or better antitumor activity
[1]; L1210, read-out: 50% inhibitory concentration (IC50), DNA synthesis inhibition
  IC50: 0.38 µg/mL (≈ 0.484 µM)
[2]; L1210, read-out: 50% inhibitory concentration (IC50), RNA synthesis inhibition
  IC50: 0.06 µg/mL (≈ 0.0764 µM)
[2]; at very low concentrations, versus carminomycin I
  RNA synthesis inhibition compared with carminomycin I (in words): better inhibition of RNA synthesis at very low concentrations
L1210 mouse leukemia; L1210 mouse leukemia
  effect on survival time of leukemia cells-holding mice / therapeutic effect (in words): marked prolonging effect on the survival time of leukemia cells-holding mice; also recorded: strong therapeutic effect on mouse leukemia (L1210)
L1210 mouse leukemia; dose 0.63 (head prints "%")
  prolongation of survival time (T/C): 122%
L1210 mouse leukemia; dose 1.25 (head prints "%")
  prolongation of survival time (T/C): 124%
L1210 mouse leukemia; dose 2.5 (head prints "%")
  prolongation of survival time (T/C): 159%
L1210 mouse leukemia; dose 5.0 (head prints "%")
  prolongation of survival time (T/C): 216%
L1210 mouse leukemia; dose 7.5 (head prints "%")
  prolongation of survival time (T/C): 243%
L1210 mouse leukemia; dose 10 (head prints "%")
  prolongation of survival time (T/C): 131%
Acute toxicity; in vivo, ip
  LD50: 40 to 50 mg/kg
Acute toxicity; relative to carminomycin I, general statement
  toxicity (in words): less toxic than carminomycin I; also recorded: unique low toxicity
[3]
  antitumor activity on various experimental tumors in animals (in words): excellent antitumor activity on various experimental tumors in animals
